“And” between values parts separate entries of the source, which are not always exact repeats. Equal entries are not always repeated.
Legend:
[1] = Ethylene-octene copolymerization (RUN A) in parallel pressure reactor; details: catalyst = 20 nmol, activator = 22 nmol, 1-octene = 100 μL, isohexane 5 mL, tri(n-octyl)aluminum = 500 nmol, T = 100° C., P = 100 PSI
Procedure: (§1) Unless stated otherwise, solutions of the metal complexes and activators were prepared in a drybox using toluene or methylcyclohexane. Concentrations were typically 0.2 mmol/L. Tri-n-octylaluminum (TNOAL, neat, AkzoNobel) was typically used as a scavenger. Concentration of the TNOAL solution in toluene was from 0.5 to 2 mmol/L.
(§2) Polymerizations were carried out in a parallel pressure reactor, as generally described in U.S. Pat. Nos. 6,306,658; 6,455,316; 6,489,168; WO 2000/009255; and Murphy, V. et al. (2003) “A Fully Integrated High-Throughput Screening Methodology for the Discovery of New Polyolefin Catalysts: Discovery of a New Class of High Temperature Single-Site Group (IV) Copolymerization Catalysts,” J. Am. Chem. Soc., v.125, pp. 4306-4317, each of which is incorporated by reference. The experiments were conducted in an inert atmosphere (N2) drybox using autoclaves equipped with an external heater for temperature control, glass inserts (internal volume of reactor=23.5 mL for C2 and C2/C8; 22.5 mL for C3 runs), septum inlets, regulated supply of nitrogen, ethylene and propylene, and equipped with disposable PEEK mechanical stirrers (800 RPM). The autoclaves were prepared by purging with dry nitrogen at 110° C. or 115° C. for 5 hours and then at 25° C. for 5 hours. Although the specific quantities, temperatures, solvents, reactants, reactant ratios, pressures, and other variables are frequently changed from one polymerization run to the next, the following describes a typical polymerization performed in a parallel pressure reactor.
(§3) RUN A: Ethylene-octene copolymerization (EO). A series of ethylene-octene polymerizations were performed in the parallel pressure reactor according to the procedure described above. In these studies rac-dimethylsilyl-bis(indenyl)hafnium dimethyl (MCN-1) was used along with ammonium borate activators. […] When sufficient polymer yield was attained (e.g., at least ˜10 mg), the polyethylene product was analyzed by Rapid GPC, described below.

[2] = Ethylene homopolymerization (RUN B) in parallel pressure reactor; details: catalyst = 20 nmol, activator = 22 nmol, isohexane 5 mL, tri(n-octyl)aluminum = 500 nmol, T = 100° C., P = 100 PSI
Procedure: as §1, §2
as §3, with “B: Ethylene homopolymerization (PE).” for “A: Ethylene-octene copolymerization (EO).”, “ethylene” for “ethylene-octene”

| Compound | activity [1] | activity [2] |
| --- | --- | --- |
| CCCCCCCCCCCCCCCCCCN(C)c1cccc2c([NH+](C)CCCCCCCCCCCCCCCCCC)cccc12.Fc1c(F)c(F)c([B-](c2c(F)c(F)c(F)c(F)c2F)(c2c(F)c(F)c(F)c(F)c2F)c2c(F)c(F)c(F)c(F)c2F)c(F)c1F [DANH-BF20] | 545 kg/mmol/h and 661 kg/mmol/h and 448 kg/mmol/h and 492 kg/mmol/h | 406 kg/mmol/h and 410 kg/mmol/h and 442 kg/mmol/h and 454 kg/mmol/h |
| CCCCCCCCCCCCCCCCCCN(C)c1cccc2c([NH+](C)CCCCCCCCCCCCCCCCCC)cccc12.Fc1c(F)c(F)c2c(F)c([B-](c3c(F)c(F)c4c(F)c(F)c(F)c(F)c4c3F)(c3c(F)c(F)c4c(F)c(F)c(F)c(F)c4c3F)c3c(F)c(F)c4c(F)c(F)c(F)c(F)c4c3F)c(F)c(F)c2c1F [DANH-BF28] | 466 kg/mmol/h and 445 kg/mmol/h and 421 kg/mmol/h and 397 kg/mmol/h | 388 kg/mmol/h and 364 kg/mmol/h and 478 kg/mmol/h and 416 kg/mmol/h |
| N,N-Dimethylanilinium tetrakis(pentafluorophenyl)borate [DMAH-BF20, reference compound] | 526 kg/mmol/h and 359 kg/mmol/h and 668 kg/mmol/h and 689 kg/mmol/h | 366 kg/mmol/h and 380 kg/mmol/h and 516 kg/mmol/h and 454 kg/mmol/h |

From patent publication US11584707B2, “Non-coordinating anion type activators containing cation having aryldiamine groups and uses thereof” (ExxonMobil Chemical Patents Inc., priority 2019, dated 2023)
